Experimental data from patent publication US20070173492A1, “1,2-Diaza-dibenzo[e,h]azulenes for the treatment of central nervous system diseases and disorders” (Pliva-Istrazivacki Institut d.o.o., priority 2003, published 2007).

What was measured:
5-HT2A receptor = biological target: T1, 5-HT2A receptor (Homo sapiens, UniProt P28223); experiment: radioligand binding assay for 5-HT2A receptor ([3H]-ketanserin); conditions: human cortex or recombinant 5-HT2A receptor expressed in CHO-K1 cells; for IC50: read-out: binding affinity to 5-HT2A serotonin receptor expressed as IC50 value; for Ki: read-out: binding affinity to 5-HT2A serotonin receptor, Ki value
T1 construct: expressed in transfected cells; alternatively human cortex tissue
Method: (§1) The effect of the compounds of the present invention on the neurochemical steady state was determined by in vitro investigations such as a radionuclide-marked radioligand binding assay for 5-HT2A (Bonhaus D. W. Br. J. Pharmacol. 1995, 115:622; Saucier C. J. Neurochem. 1997, 68:1998) and 5-HT2C receptors (Wolf W. A. J. Neurochem. 1997, 69:1449), in vitro binding assay for the σ1 receptor (Thomson W. and Donn R. Arthritis Res. 2002, 4: 302-306) and by in vivo investigations in a tail suspension test (Vogel H. G. and Vogel W. H. Drug Discovery and Evaluation Pharmacological Assays, Springer 1997, 304), in amphetamine-induced hyperlocomotion in mice (Millan M. J. et al, 1998 J. Pharmacol. Exp. Ther. 287: 167-186), in a forced swim test in mice (Porsolt R. D. et al. Arch. Int. Pharmacodyn. 1977, 229:327-336), in meta-chlorophenyl piperazine (m-CPP) test on rats (Drug Dev. Res. 1989, 18:119-144), and in apomorphine, tryptamine, norepinephrine (ATN) test in rats (Arch. Int. Pharmacodyn. 1977, 227:238-253).
(§2) A small concentration of a radioligand having a great affinity for binding to a receptor was incubated with a tissue sample enriched with a certain receptor (1-5 mg of tissue) in a buffered medium (0.2-5 mL). Recombinant human HT2A and HT2C receptors were expressed in CHO-K1 or COS-7 cells and were also used for competitive binding. During incubation the radioligand bound to the receptor. When a binding balance was achieved, the receptors to which the radioligand was bound were separated from those to which said ligand was not bound, and the radioactivity of the receptor/radioligand complex was measured. The interaction of the tested compounds with receptors was tested in competitive binding experiments. Various concentrations of tested compounds were added to the incubation mixture containing a prepared tissue enriched with corresponding receptors and the radioligand. The radioligand binding was inhibited by the test compounds proportionally to the affinity of a certain compound for the receptor and to the concentration of the compound.
The radioligand used for the determination of binding to 5-HT2A receptor was [^3H]-ketanserin and the tissue used was human cortex or recombinant 5-HT2A receptor expressed in CHO-K1 cells.

5-HT2C receptor = biological target: T2, 5-HT2C receptor (Homo sapiens, UniProt P28335); experiment: radioligand binding assay for 5-HT2C receptor ([3H]-mesulergine); conditions: choroid plexus or recombinant 5-HT2C receptor expressed in CHO-K1 cells; for IC50: read-out: binding affinity to 5-HT2C serotonin receptor expressed as IC50 value; for Ki: read-out: binding affinity to 5-HT2C serotonin receptor, Ki value
T2 construct: expressed in transfected cells; alternatively choroid plexus tissue
T2 sequence (P28335 33-458): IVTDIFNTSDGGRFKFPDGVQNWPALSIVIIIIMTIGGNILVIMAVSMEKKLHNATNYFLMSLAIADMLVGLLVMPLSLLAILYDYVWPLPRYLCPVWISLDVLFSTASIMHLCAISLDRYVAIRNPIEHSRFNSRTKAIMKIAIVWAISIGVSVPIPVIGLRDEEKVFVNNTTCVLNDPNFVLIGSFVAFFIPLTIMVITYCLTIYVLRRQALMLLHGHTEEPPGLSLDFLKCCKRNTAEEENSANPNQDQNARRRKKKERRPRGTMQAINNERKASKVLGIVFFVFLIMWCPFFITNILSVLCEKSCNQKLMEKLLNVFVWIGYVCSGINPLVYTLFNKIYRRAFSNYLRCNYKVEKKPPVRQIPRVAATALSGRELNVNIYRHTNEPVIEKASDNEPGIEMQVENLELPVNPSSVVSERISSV
Method: as §1, §2
The radioligand used for the determination of binding to 5-HT2C receptor was [^3H]-mesulergine and the tissue used was choroid plexus or recombinant 5-HT2C receptor expressed in CHO-K1 cells.

T1 sequence (P28223 whole entry): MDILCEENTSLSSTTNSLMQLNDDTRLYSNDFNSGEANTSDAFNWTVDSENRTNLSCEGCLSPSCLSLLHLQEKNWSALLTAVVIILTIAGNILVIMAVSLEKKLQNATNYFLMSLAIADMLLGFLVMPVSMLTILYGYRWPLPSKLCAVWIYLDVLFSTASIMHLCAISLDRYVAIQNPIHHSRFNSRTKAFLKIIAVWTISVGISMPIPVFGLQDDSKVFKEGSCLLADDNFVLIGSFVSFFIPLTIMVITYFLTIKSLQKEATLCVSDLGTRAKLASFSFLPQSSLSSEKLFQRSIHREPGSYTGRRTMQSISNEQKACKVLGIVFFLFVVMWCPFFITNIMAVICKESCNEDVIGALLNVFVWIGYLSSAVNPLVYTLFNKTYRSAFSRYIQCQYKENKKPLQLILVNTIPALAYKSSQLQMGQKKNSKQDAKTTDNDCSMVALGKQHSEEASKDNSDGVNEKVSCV

IC50 (5-HT2A receptor)	Ki (5-HT2A receptor)	IC50 (5-HT2C receptor)	Ki (5-HT2C receptor)	SMILES
< 0.2 µM	< 0.1 µM	< 0.2 µM	< 0.1 µM	CN(C)CCOCc1n[nH]c2c1-c1ccccc1Oc1ccc(Cl)cc1-2 [[2-(11-chloro-1H-8-oxa-1,2-diaza-dibenzo[e,h]azulen-3-ylmethoxy)-ethyl]-dimethyl-amine]
< 0.2 µM	< 0.1 µM	< 0.2 µM	< 0.1 µM	CN(C)CCCOCc1c2c(nn1CCc1ccccc1)-c1ccccc1Sc1ccccc1-2 [dimethyl-[3-(2-phenethyl-2H-8-thia-1,2-diaza-dibenzo[e,h]azulen-3-ylmethoxy)-propyl]-amine]
< 0.2 µM	< 0.1 µM	< 0.2 µM	< 0.1 µM	CN(C)CCCOCc1n[nH]c2c1-c1ccccc1Sc1ccccc1-2 [dimethyl-[3-(11H-8-thia-1,2-diaza-dibenzo[e,h]azulen-3-ylmethoxy)-propyl]-amine]
